In patent US11866430B2, “Naphthyridinone compounds useful as T cell activators” (priority 2018, dated 2024):

Assays:
naïve human CD8 T cells = assay: cells; conditions: Homo sapiens, T-cell, read-out: HuCD8 INFG Normalized EC50, anti-CD3 plus anti-CD28 as baseline; 3 μM Example 40 co-stimulation as 100% activation
Protocol: Frozen naïve human CD8 T cells were thawed in ATM-V media, incubated for 2 h in 37° C., and counted. The 384-well tissue culture plate was coated overnight at 4° C. with 20 μl anti-human CD3 at 0.05 μg/mL in PBS, which was removed off the plate before 40,000 cells per 40 microliters CD8 T cells with 0.1 μg/mL soluble anti-human CD28 were added to each well. The compounds were transferred using an Echo liquid handler to the cell plate immediately after the cells were plated. After 20 h incubation at 37° C. incubator, 3 microliters per well supernatants transferred into a new 384-well white assay plate for cytokine measurement.
Interferon-γ (IFN-γ) was quantitated using the AlphaLISA kit (Cat #AL217) as described by the manufacturer manual (Perkin Elmer). The counts from each well were converted to IFN-γ concentration […].

human DGKζ = human DGKζ (Homo sapiens (Human), UniProt Q13574); assay: DGKζ LIPGLO assay (extruded liposome substrate); format: biochemical; conditions: extruded liposome substrate; read-out: DGKζ LIPGLO IC50
Chain of human DGKζ (Q13574 other isoform, or with tags, fused parts or gaps): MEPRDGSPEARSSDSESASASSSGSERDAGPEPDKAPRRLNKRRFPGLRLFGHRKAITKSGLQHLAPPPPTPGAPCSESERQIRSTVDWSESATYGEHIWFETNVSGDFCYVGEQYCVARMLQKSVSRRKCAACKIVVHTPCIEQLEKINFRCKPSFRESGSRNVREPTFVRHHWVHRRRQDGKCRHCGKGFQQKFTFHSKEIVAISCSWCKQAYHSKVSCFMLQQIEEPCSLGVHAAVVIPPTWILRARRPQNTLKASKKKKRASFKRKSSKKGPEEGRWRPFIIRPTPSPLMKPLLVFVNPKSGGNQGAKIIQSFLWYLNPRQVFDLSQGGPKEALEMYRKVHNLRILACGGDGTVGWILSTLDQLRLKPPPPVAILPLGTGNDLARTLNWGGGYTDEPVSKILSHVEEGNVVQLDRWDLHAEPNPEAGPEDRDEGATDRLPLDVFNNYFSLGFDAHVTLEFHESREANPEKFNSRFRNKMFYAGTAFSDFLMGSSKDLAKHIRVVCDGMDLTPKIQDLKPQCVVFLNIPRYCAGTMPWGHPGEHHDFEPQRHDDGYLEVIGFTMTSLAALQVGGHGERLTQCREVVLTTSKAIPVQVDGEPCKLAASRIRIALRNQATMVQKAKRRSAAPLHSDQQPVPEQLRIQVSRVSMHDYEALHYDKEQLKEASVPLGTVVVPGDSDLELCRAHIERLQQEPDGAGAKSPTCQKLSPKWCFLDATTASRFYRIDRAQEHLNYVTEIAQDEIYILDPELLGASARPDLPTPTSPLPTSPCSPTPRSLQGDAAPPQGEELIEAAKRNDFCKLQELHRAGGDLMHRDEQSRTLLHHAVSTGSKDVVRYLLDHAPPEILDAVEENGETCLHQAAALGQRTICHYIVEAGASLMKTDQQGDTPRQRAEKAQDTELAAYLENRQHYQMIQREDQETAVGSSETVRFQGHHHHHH
In short: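 Sf9-derived DGKζ was premixed 10 min with PC/DAG/PS liposomes (100 nm extruded) in MOPS pH 7.5 buffer containing NaCl, MgCl2, CaCl2 and DTT.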

human DGKα = human DGKα (Homo sapiens (Human), UniProt P23743); assay: DGKα LIPGLO assay (extruded liposome substrate); format: biochemical
Chain of human DGKα (P23743 other isoform, or with tags, fused parts or gaps): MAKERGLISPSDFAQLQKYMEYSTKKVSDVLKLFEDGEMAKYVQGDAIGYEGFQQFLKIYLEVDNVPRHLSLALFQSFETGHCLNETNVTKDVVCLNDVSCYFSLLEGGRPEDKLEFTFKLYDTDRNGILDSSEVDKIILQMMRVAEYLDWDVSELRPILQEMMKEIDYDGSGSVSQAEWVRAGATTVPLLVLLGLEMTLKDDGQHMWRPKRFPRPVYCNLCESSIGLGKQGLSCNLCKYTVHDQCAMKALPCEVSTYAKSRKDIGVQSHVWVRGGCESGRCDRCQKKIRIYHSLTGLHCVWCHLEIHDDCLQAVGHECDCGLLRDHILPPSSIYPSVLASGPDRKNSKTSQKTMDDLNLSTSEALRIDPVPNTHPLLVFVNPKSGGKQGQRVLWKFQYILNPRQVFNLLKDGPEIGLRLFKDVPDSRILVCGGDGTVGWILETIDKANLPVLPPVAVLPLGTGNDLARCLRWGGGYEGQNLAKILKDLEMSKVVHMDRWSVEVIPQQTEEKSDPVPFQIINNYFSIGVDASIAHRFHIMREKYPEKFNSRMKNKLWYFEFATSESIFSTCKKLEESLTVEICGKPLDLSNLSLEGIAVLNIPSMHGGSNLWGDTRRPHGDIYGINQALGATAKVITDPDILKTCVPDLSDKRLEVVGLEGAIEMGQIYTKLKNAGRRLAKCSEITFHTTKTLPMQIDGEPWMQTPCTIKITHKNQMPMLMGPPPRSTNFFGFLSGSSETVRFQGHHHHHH
In short: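 Human full-length DGKα, His-tagged and produced in Sf9 cells, assayed at 20 nM (4× stock) on extruded liposomes of PS, 0.25 mM DAG and 2.75 mM PC, preincubated 10 min. Reaction started with 300 μM ATP (stock) and ran 1 h in MOPS pH 7.5/MgCl2/CaCl2/DTT buffer.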

Row | SMILES | EC50 (naïve human CD8 T cells) [µM] | IC50 (human DGKζ) [µM] | IC50 (human DGKα) [µM]
1 | Cn1c(=O)c(C#N)c(N2CCN(C(c3ccccc3)c3ccc(Cl)cc3)CC2)c2nc(Br)ccc21 (racemic) [Example 429, 6-bromo-4-{4-[(4-chlorophenyl)(phenyl)methyl]piperazin-1-yl}-1-methyl-2-oxo-1,2-dihydro-1,5-naphthyridine-3-carbonitrile] | 0.08 | 9.4 | 1.8
2 | Cn1c(=O)c(C#N)c(N2CCN(C(c3ccccc3)c3ccc(F)cc3)CC2)c2nc(Br)ccc21 (racemic) [Example 430, 6-bromo-4-{4-[(4-fluorophenyl)(phenyl)methyl]piperazin-1-yl}-1-methyl-2-oxo-1,2-dihydro-1,5-naphthyridine-3-carbonitrile] | 0.3 | 3 | 1.9
3 | COc1ccc2c(n1)c(N1CCN(C(c3ccc(F)cc3)c3ccc(F)cc3OC)CC1)c(C#N)c(=O)n2C (single isomer, unassigned) [Example 413, 4-{4-[(4-fluoro-2-methoxyphenyl)(4-fluorophenyl)methyl]piperazin-1-yl}-6-methoxy-1-methyl-2-oxo-1,2-dihydro-1,5-naphthyridine-3-carbonitrile] | 0.04 | 0.97 | 3.3
4 | COc1cc(F)ccc1C(c1ccc(F)cc1OC)N1CCN(c2c(C#N)c(=O)n(C)c3ccc(C)nc23)CC1 [Example 251, 4-{4-[bis(4-fluoro-2-methoxyphenyl)methyl]piperazin-1-yl}-1,6-dimethyl-2-oxo-1,2-dihydro-1,5-naphthyridine-3-carbonitrile] | 0.58 | 9 | > 240
5 | COCCC(C)N1CCN(c2c(C#N)c(=O)n(C)c3ccc(C)nc23)CC1 (stereo not drawn) [Example 252, 4-[4-(4-methoxybutan-2-yl)piperazin-1-yl]-1,6-dimethyl-2-oxo-1,2-dihydro-1,5-naphthyridine-3-carbonitrile] | 10 | 200 | > 240
6 | Cc1ccc2c(n1)c(N1CCN(C3CCOc4ccccc43)CC1)c(C#N)c(=O)n2C (stereo not drawn) [Example 253, 4-[4-(3,4-dihydro-2H-1-benzopyran-4-yl)piperazin-1-yl]-1,6-dimethyl-2-oxo-1,2-dihydro-1,5-naphthyridine-3-carbonitrile] | 2.51 | 7.4 | 40
7 | Cc1ccc2c(n1)c(N1CCN(C(c3ccc(F)cc3)c3ccccn3)CC1)c(C#N)c(=O)n2C (stereo not drawn) [Example 256, 4-{4-[(4-fluorophenyl)(pyridin-2-yl)methyl]piperazin-1-yl}-1,6-dimethyl-2-oxo-1,2-dihydro-1,5-naphthyridine-3-carbonitrile] | 0.24 | 10 | 2.7
8 | Cn1c(=O)c(C#N)c(N2CCN(C(c3ccc(Cl)cc3)c3ccc(Cl)cc3)CC2)c2nc(Br)ccc21 [Example 393, 4-{4-[bis(4-chlorophenyl)methyl]piperazin-1-yl}-6-bromo-1-methyl-2-oxo-1,2-dihydro-1,5-naphthyridine-3-carbonitrile] | 0.17 | > 240 | 9
9 | Cn1c(=O)c(C#N)c(N2CCN(C(c3ccc(Cl)cc3)c3ccc(Cl)cc3)CC2)c2nc(C#N)ccc21 [Example 394, 8-{4-[bis(4-chlorophenyl)methyl]piperazin-1-yl}-5-methyl-6-oxo-5,6-dihydro-1,5-naphthyridine-2,7-dicarbonitrile] | 0.01 | 1.2 | 3.9
10 | COc1ccc2c(n1)c(N1CCN(C(c3ccc(Cl)cc3)c3ccc(Cl)cc3)CC1)c(C#N)c(=O)n2C [Example 395, 4-{4-[bis(4-chlorophenyl)methyl]piperazin-1-yl}-6-methoxy-1-methy-2-oxo-1,2-dihydro-1,5-naphthyridine-3-carbonitrile] | 0.09 | 3 | 14
11 | COc1ccc2c(n1)c(N1CCN(C(c3ccc(F)cc3)c3cccnc3OC)CC1)c(C#N)c(=O)n2C (stereo not drawn) [Example 396, 4-{4-[(4-fluorophenyl)(2-methoxypyridin-3-yl)methyl]piperazin-1-yl}-6-methoxy-1-methyl-2-oxo-1,2-dihydro-1,5-naphthyridine-3-carbonitrile] | 2.66 | 5.8 | 21
12 | COc1ccc2c(n1)c(N1CCN(C(c3ccc(F)cc3)c3ncccc3OC)CC1)c(C#N)c(=O)n2C (stereo not drawn) [Example 397, 4-{4-[(4-fluorophenyl)(3-methoxypyridin-2-yl)methyl]piperazin-1-yl}-6-methoxy-1-methyl-2-oxo-1,2-dihydro-1,5-naphthyridine-3-carbonitrile] | 4.47 | 13 | 16
13 | Cn1c(=O)c(C#N)c(N2CCN(C(c3ccc(F)cc3)c3ccccn3)CC2)c2nc(C#N)ccc21 (stereo not drawn) [Example 400, 8-{4-[(4-fluorophenyl)(pyridin-2-yl)methyl]piperazin-1-yl}-5-methyl-6-oxo-5,6-dihydro-1,5-naphthyridine-2,7-dicarbonitrile] | 0.05 | 2.1 | 5.4
14 | COc1ccc2c(n1)c(N1CCN(C(c3ncccn3)c3ccc(F)cc3OC)CC1)c(C#N)c(=O)n2C (stereo not drawn) [Example 401, 4-{4-[(4-fluoro-2-methoxyphenyl)(pyrimidin-2-yl)methyl]piperazin-1-yl}-6-methoxy-1-methyl-2-oxo-1,2-dihydro-1,5-naphthyridine-3-carbonitrile] | 10 | 7.6 | 81
15 | COc1ccc2c(n1)c(N1CCN(C(c3ccc(F)cc3OC)c3ccc(F)cc3OC)CC1)c(C#N)c(=O)n2C [Example 402, 4-{4-[bis(4-fluoro-2-methoxyphenyl)methyl]piperazin-1-yl}-6-methoxy-1-methyl-2-oxo-1,2-dihydro-1,5-naphthyridine-3-carbonitrile] | 1.78 | 3.5 | 160
16 | COc1ccc2c(n1)c(N1CCN(C(c3ccc(F)cc3)c3ccccn3)CC1)c(C#N)c(=O)n2C (stereo not drawn) [Example 403, 4-{4-[(4-fluorophenyl)(pyridin-2-yl)methyl]piperazin-1-yl}-6-methoxy-1-methyl-2-oxo-1,2-dihydro-1,5-naphthyridine-3-carbonitrile] | 1.49 | 5.7 | 26
17 | COc1cccnc1C(c1ccc(F)cc1)N1CCN(c2c(C#N)c(=O)n(C)c3ccc(C#N)nc23)CC1 (stereo not drawn) [Example 410, 8-{4-[(4-fluorophenyl)(3-methoxypyridin-2-yl)methyl]piperazin-1-yl}-5-methyl-6-oxo-5,6-dihydro-1,5-naphthyridine-2,7-dicarbonitrile] | 0.09 | 2.2 | 5.4
18 | Cn1c(=O)c(C#N)c(N2CCN(C(c3ccccc3)c3ccc(F)cc3)CC2)c2nc(C#N)ccc21 (stereo not drawn) [Example 411, 8-{4-[(4-fluorophenyl)(phenyl)methyl]piperazin-1-yl}-5-methyl-6-oxo-5,6-dihydro-1,5-naphthyridine-2,7-dicarbonitrile] | 0.02 | 1.4 | 4.9
19 | Cn1c(=O)c(C#N)c(N2CCN([C@@H](c3ccccc3)c3ccc(Cl)cc3)CC2)c2nc(C#N)ccc21 [Example 414, 8-{4-[(S)-(4-chlorophenyl)(phenyl)methyl]piperazin-1-yl}-5-methyl-6-oxo-5,6-dihydro-1,5-naphthyridine-2,7-dicarbonitrile] | 0.16 | 1.5 | 9
20 | COc1cc(C)ccc1C(c1ccc(F)cc1)N1CCN(c2c([N+](=O)[O-])c(=O)n(C)c3ccc(C#N)nc23)CC1 (stereo not drawn) [Example 416, 8-{4-[(4-fluorophenyl)(2-methoxy-4-methylphenyl)methyl]piperazin-1-yl}-5-methyl-7-nitro-6-oxo-5,6-dihydro-1,5-naphthyridine-2-carbonitrile] | 0.03 | 0.91 | 4.8
21 | Cn1c(=O)cc(N2CCN(C(c3ccc(F)cc3)c3ccc(F)cc3)CC2)c2nc(C#N)ccc21 [Example 432, 8-{4-[bis(4-fluorophenyl)methyl]piperazin-1-yl}-5-methyl-6-oxo-5,6-dihydro-1,5-naphthyridine-2-carbonitrile] | 0.06 | 5.4 | > 240
